Results reported in patent US20240350430A1, “GROWTH INHIBITOR OF METASTATIC HUMAN PROSTATE CANCER CELLS” (Watanabe Oyster Laboratory Co., Ltd., priority 2021, published 2024).

Experiments:
Type in all cases: cell-based, human
[1] = tested on: PC-3 cells; assay: Cell death of sub-confluent PC-3 cells (adherent cell counting)
Protocol: The PC-3 and DU-145 cells (1×10^5/in 1 ml of a culture fluid per hole using a 24-hole plate) were cultured in a DMEM culture fluid (containing 10% of FBS, 1% of P/S, and 1% of fungizone) under 5% of CO2, at 37° C., for three days, and when the cells reached sub-confluence, the culture fluid was exchanged for the one containing the DHMBA (0.01, 0.1, 1, 10, 100, or 1000 μM), and the cells were cultured for 24 and 48 hours. After the culture, the cells adhering to the bottom surface of the dish were removed and counted. In another experiment, after the culture for three days, when the cells reached sub-confluence, the culture fluid was exchanged for a culture fluid containing the DHMBA (1 or 10 μM) and a caspase-3 inhibitor (10 μM), and the cells were counted after the culture for 48 hours. Further, after the culture for three days, when the cells reached sub-confluence, the culture fluid was exchanged for a culture fluid obtained by adding gemcitabine (0.1, 1, 10, 50 or 100 nM) or CH223191 (1, 10, and 25 μM) to a DMEM culture fluid containing the DHMBA (1 or 10 μM) or not containing the DHMBA, and the cells were counted after the culture for 48 hours.
(§1) After the culture of the cells, 0.1 ml of 0.05% trypsin-EDTA solution obtained by dissolving the cells adhering to the bottom surface of the culture dish in PBS (Thermo Fisher Scientific, Waltham, MA, USA) not containing Ca^2+/Mg^2+ was added, incubation was performed at 37° C. for two minutes to release the adhering cells, and 0.9 ml of the DMEM culture fluid containing 10% of FBS and 1% of P/S was added to stop the reaction. The visible cells were counted by the Olympus MTV-3 microscope using a hemocytometer (Sigma-Aldrich).
(§2) In the drawing, the PC-3 (FIGS. 5(A) and 5(B)) and DU-145 (FIGS. 5(D) and 5(E)) cells (1×10^5/in 1 ml of a culture fluid per hole using a 24-hole plate) were cultured under 5% of CO2, at 37° C., for three days in a DMEM culture fluid (containing 10% of FBS, 1% of P/S, and 1% of fungizone), and when the cells reached sub-confluence, the culture fluid was exchanged for the one containing the DHMBA (0.01, 0.1, 1, 10, 100, or 1000 μM), and the cells were cultured for 24 and 48 hours. In the drawing, after the culture, the cells adhering to the dish were counted.
In another experiment, after the culture for three days, when the cells reached sub-confluence, for the PC-3 (FIG. 5(C)) or DU-145 (FIG. 5(F)) cells, the culture fluid was exchanged for a culture fluid containing the DHMBA (1 or 10 μM) and a caspase-3 inhibitor (10 μM), and the cells were counted after the culture for 48 hours. Further, after the culture for three days, when the cells reached sub-confluence, the culture fluid was exchanged for a culture fluid obtained by adding gemcitabine (0.1, 1, 10, 50 or 100 nM) or CH223191 (1, 10, and 25 μM) to a DMEM culture fluid containing the DHMBA (1 or 10 μM) or not containing the DHMBA, and the cells were counted after the culture for 48 hours. After the culture, the cells adhered to the dish were removed and counted. Each piece of data is shown with a mean value and a standard deviation of values obtained from eight wells of the different cultured cells. *p<0.001, comparison with the control (gray bar). 1-way ANOVA, Tukey-Kramer post-test.
as §2, with “The” for “In the drawing, the”, “PC-3” for “PC-3 (FIGS. 5(A) and 5(B)) and DU-145 (FIGS. 5(D) and 5(E))”, “gemcitabine (1,” for “DHMBA (0.01, 0.1, 1,”, “10, 50,” for “10,”, “250 nM),” for “1000 μM),”, “for” for “for 24 and”
After the culture for three days, when the cells reached sub-confluence, the culture fluid was exchanged for a culture fluid containing the DHMBA (1 or 10 μM) and gemcitabine (1, 10, or 100 nM), and the cells were counted after the culture for 48 hours. […]

[2] = tested on: PC-3 cells; assay: Cell growth of PC-3 cells (cell counting); settings: three days; for cell growth in the presence of cell cycle inhibitor alone: roscovitine 10 or 100 nM, butyrate 10 or 100 μM, sulforaphane 1 or 10 nM
Protocol: (§3) The PC-3 and DU-145 cells (the cell number of 1×10^5/in 1 ml of a culture fluid per hole using a 24-hole plate) were cultured in a DMEM culture fluid (containing 10% of FBS, 1% of P/S, and 1% of fungizone) containing the DHMBA (1 and 10 μM) under 5% of CO2, at 37° C., for one, two, three, four, and six days. […] After the culture, 0.1 ml of 0.05% trypsin-EDTA solution obtained by dissolving the cells adhering to the bottom surface of the culture dish in PBS (Thermo Fisher Scientific, Waltham, MA, USA) not containing Ca^2+/Mg^2+ was added, incubation was performed at 37° C. for two minutes to release the adhering cells, and 0.9 ml of the DMEM culture fluid containing 10% of FBS and 1% of P/S was added to stop the reaction. The cell number in the cell suspension was counted by the method described in the item of “Measurement of Cell Number.”
as §1
FIG. 1(C) is a diagram in which the PC-3 cells (1×10^5 cells/per well of a 24-well plate) were cultured under 5% of CO2, at 37° C., for one to six days in a DMEM culture fluid (containing 10% of FBS, 1% of P/S, and 1% of fungizone) containing the DHMBA (10 μM).
(§4) In FIGS. 1(D) and 1(E), the PC-3 cells (1×10^5 cells/per well of a 24-well plate) were cultured under 5% of CO2, at 37° C., for three (FIG. 1D) and six (FIG. 1E) days in a DMEM culture fluid (containing 10% of FBS, 1% of P/S, and 1% of fungizone) containing the DHMBA (0.01, 0.1, 1, 10, 100, and 1000 μM). After the culture, the cells adhered to the bottom surface of the dish were removed and counted. […] 1-way ANOVA, Tukey-Kramer post-test.
FIGS. 3(A) and 3(B) are diagrams in which the PC-3 cells (1×10^5 cells/ml/per well of a 24-well plate) were cultured under 5% of CO2, at 37° C., for three days in a DMEM culture fluid (containing 10% of FBS, 1% of P/S, and 1% of fungizone) containing the DHMBA (10 μM) containing cell cycle inhibitors, roscovitine (10 and 100 nM), butyrate (10 and 100 μM), and sulforaphane (1 and 10 nM).
After the culture, the cells adhered to the dish were removed and counted. […] 1-way ANOVA, Tukey-Kramer post-test.
In the drawing, the PC-3 cells (1×10^5/in 1 ml of a culture fluid per hole using a 24-hole plate) were cultured under 5% of CO2, at 37° C., for three days in a DMEM culture fluid (containing 10% of FBS, 1% of P/S, and 1% of fungizone) in the presence of the DHMBA (10 μM) and an aryl hydrocarbon receptor inhibitor CH223191 (1, 10, or 25 μM) to examine the action on cell growth.

[3] = tested on: DU-145 cells; assay: Cell growth of DU-145 cells (cell counting); settings: three days, roscovitine 10 or 100 nM, butyrate 10 or 100 μM, sulforaphane 1 or 10 nM
Protocol: as §3, §1
FIG. 2(C) is a diagram in which the DU-145 cells (1×10^5 cells/per well of a 24-well plate) were cultured under 5% of CO2, at 37° C., for one to six days in a DMEM culture fluid (containing 10% of FBS, 1% of P/S, and 1% of fungizone) containing the DHMBA (10 μM).
as §4, with “2(D)” for “1(D)”, “2(E),” for “1(E),”, “DU-145” for “PC-3”, “2D)” for “1D)”, “2E)” for “1E)”, “the” for “the bottom surface of the”

SMILES: Nc1ccn([C@@H]2O[C@H](CO)[C@@H](O)C2(F)F)c(=O)n1 [gemcitabine, reference compound]
- cell death by gemcitabine alone ([1]; gemcitabine 1, 10, 50, 100, and 250 nM, three days as printed): significant cell deaths

SMILES: Cc1ccccc1N=Nc1ccc(NC(=O)c2ccnn2C)c(C)c1 [CH223191, 2-Methyl-2H-pyrazole-3-carboxylic acid (2-methyl-4-o-tolylazo-phenyl)-amide, reference compound]
- action of CH223191 alone on cell growth ([2]; CH223191 1, 10, or 25 μM): no significant effect
- cell death induction by CH223191 alone ([1]; sub-confluent, CH223191 1, 10, or 25 μM, 48 hours): did not cause the cell death induction

SMILES: CC[C@H](CO)Nc1nc(NCc2ccccc2)c2ncn(C(C)C)c2n1 [roscovitine, reference compound]
- cell growth in the presence of cell cycle inhibitor alone [2]: inhibited
- cell growth in the presence of cell cycle inhibitor alone [3]: inhibited

SMILES: C[S+]([O-])CCCCN=C=S (centres unmarked) [sulforaphane, reference compound]
- cell growth in the presence of cell cycle inhibitor alone [2]: inhibited
- cell growth in the presence of cell cycle inhibitor alone [3]: inhibited

SMILES: COc1cccc(-c2cc(=O)c3ccccc3o2)c1N [PD98059, reference compound]
- cell growth in the presence of intracellular signaling inhibitor alone ([2]; wortmannin 10 or 100 nM, PD98059 1 or 10 μM, staurosporine 1 or 10 nM): inhibited
